Our source for the Ki values is ChEMBL document CHEMBL1142318, “Azetidine based transition state analogue inhibitors of N-ribosyl hydrolases and phosphorylases” (J Med Chem, 2008).

Assay [1] deals with T1, Purine nucleoside phosphorylase (Plasmodium falciparum, UniProt Q8T9Z7).
T1 sequence (Q8T9Z7 whole entry): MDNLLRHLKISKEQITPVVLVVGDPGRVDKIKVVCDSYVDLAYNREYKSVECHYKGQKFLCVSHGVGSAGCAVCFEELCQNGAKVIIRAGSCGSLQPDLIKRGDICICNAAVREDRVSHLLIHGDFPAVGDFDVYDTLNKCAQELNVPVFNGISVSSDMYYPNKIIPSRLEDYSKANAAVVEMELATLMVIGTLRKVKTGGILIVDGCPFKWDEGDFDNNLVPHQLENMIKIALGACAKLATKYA
The assay can be described thus: Inhibition of Plasmodium falciparum PNP.

The target in assay [2] is T2, Purine nucleoside phosphorylase (Homo sapiens, UniProt P00491).
T2 sequence (P00491 whole entry): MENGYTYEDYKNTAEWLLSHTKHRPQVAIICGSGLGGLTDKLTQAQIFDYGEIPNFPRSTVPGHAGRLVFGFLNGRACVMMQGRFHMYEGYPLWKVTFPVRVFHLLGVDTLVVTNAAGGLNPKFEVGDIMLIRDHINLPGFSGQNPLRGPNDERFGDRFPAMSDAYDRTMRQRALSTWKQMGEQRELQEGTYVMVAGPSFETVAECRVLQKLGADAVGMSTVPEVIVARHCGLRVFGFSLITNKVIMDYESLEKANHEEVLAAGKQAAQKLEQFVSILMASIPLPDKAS
Put plainly: Inhibition of human PNP.

Assay [3] concerns the target T3, Purine nucleoside phosphorylase (Bos taurus, UniProt P55859).
T3 sequence (P55859 whole entry): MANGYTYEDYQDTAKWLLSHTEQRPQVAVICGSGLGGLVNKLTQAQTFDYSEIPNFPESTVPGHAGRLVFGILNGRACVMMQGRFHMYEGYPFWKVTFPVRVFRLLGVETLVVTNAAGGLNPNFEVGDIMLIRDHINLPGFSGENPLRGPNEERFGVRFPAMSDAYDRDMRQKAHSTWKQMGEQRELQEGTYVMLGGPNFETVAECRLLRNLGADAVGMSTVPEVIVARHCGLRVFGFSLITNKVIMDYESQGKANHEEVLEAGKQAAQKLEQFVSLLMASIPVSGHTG
The assay can be described thus: Inhibition of bovine PNP.

Assay [4] addresses T4, 5'-methylthioadenosine/S-adenosylhomocysteine nucleosidase (Streptococcus pneumoniae serotype 4 (strain ATCC BAA-334 / TIGR4), UniProt A0A0H2UPP7).
T4 sequence (A0A0H2UPP7 whole entry): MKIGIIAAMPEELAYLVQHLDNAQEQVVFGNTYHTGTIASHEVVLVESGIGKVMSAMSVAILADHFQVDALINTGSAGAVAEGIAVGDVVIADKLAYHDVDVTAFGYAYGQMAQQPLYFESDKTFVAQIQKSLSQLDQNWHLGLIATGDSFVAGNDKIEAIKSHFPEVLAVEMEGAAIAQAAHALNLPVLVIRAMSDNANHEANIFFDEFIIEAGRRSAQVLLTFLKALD
The assay can be described thus: Inhibition of Streptococcus pneumoniae MTAN.

For assay [5], the target named is 5'-methylthioadenosine/S-adenosylhomocysteine nucleosidase (Escherichia coli O157:H7, UniProt P0AF14).
Assay [6] addresses T5, S-methyl-5'-thioadenosine phosphorylase (Homo sapiens, UniProt Q13126).
T5 sequence (Q13126 whole entry): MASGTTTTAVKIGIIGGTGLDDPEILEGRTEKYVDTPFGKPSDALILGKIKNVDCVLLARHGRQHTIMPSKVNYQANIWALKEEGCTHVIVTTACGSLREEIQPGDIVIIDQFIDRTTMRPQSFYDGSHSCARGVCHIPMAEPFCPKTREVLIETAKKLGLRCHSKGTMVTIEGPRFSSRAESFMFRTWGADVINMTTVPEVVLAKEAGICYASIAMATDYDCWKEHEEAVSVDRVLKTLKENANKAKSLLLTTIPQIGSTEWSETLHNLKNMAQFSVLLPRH
The assay can be described thus: Inhibition of human MTAP.

Chain of 5'-methylthioadenosine/S-adenosylhomocysteine nucleosidase (Escherichia coli O157:H7, UniProt P0AF14) (P0AF14 whole entry): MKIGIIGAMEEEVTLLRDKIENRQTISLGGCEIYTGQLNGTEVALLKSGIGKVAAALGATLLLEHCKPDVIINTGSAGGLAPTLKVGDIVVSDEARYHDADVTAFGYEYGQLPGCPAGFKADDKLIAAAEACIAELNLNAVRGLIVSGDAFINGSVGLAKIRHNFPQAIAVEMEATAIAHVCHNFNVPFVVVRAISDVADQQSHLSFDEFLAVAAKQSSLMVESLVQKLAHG

In turn, `O=c1[nH]cnc2c(CN3CC(CO)C3)c[nH]c12` registered a Ki in assay [1] above 10000 nM.
As to `O=c1[nH]cnc2c(CN3[C@@H](CO)C[C@@H]3CO)c[nH]c12` (racemic), the Ki in assay [1] came to 580 nM; in assay [2] it was 280 nM; in assay [3], 360 nM.
As for `CSC[C@H]1CN(Cc2c[nH]c3c(N)ncnc23)C[C@@H]1O`, the Ki was determined as 24 nM in assay [4], 0.002 nM in assay [5] and 0.09 nM in assay [6].
Turning to `CSCC1CN(Cc2c[nH]c3c(N)ncnc23)C1`, the Ki in assay [4] amounted to 84 nM; in assay [5], 0.45 nM.
The matching figures for `CSCC1(CO)CN(Cc2c[nH]c3c(N)ncnc23)C1`: 150 nM and 0.84 nM.
Turning to `O=c1[nH]cnc2c(CN3C(CO)CC3CO)c[nH]c12` (stereo not drawn), the figures for the Ki in assay [1], in assay [2] and in assay [3] were 1290 nM, 12.9 nM and 16 nM, respectively.
The matching figures for `O=c1[nH]cnc2c(CN3C[C@H](CO)[C@@H](O)C3)c[nH]c12` [ULODESINE]: 0.5 nM, 0.0107 nM and 0.1 nM.
As for `O=c1[nH]cnc2c(CN3CC(CO)(CO)C3)c[nH]c12`, the inhibitory constant (Ki) in assay [1] is above 10000 nM.
